Assay results: US6852688B2, “Compositions for treating diabetic retinopathy and methods of using same” (University of Florida, priority 2000, dated 2005)
Where “and” joins values, the source holds several entries; their conditions need not be identical. Equal entries are not always repeated.

Legend:
[1] = test system: patients with type I diabetes and severe non-proliferative DR or non-"high risk" proliferative DR; assay: Phase I human study: octreotide plus conventional diabetes management versus conventional management alone, 15 months; format: in vivo
Excerpt: A total of 39 patients with type I or type II diabetes and diagnosed with either severe non-proliferative DR or non-“high risk” proliferative DR were enrolled between 1991 and 1996 into Phase I or Phase II of the study. Subjects were recruited from patients treated for diabetes mellitus at the University of Florida Adult Endocrinology clinics and referrals from community retinal specialists. All patients provided written informed consent to participate in required study procedures. Volunteers in both phases of the study were randomized to receive conventional diabetes management alone (control group) or octreotide treatment with conventional diabetes care (OCT group). Octreotide was administered via subcutaneous injection 4 times daily or via continuous subcutaneous infusion with doses individually adjusted to the highest tolerated somatostatin analogue levels. The intent was to increase the dose of octreotide until serum IGF-1 was decreased to the hypopituitary range of 75 ng/mL or drug related adverse effects limited octreotide dosing. […] It was expected that approximately 35 to 50% of the control group would progress to photocoagulation within the 15-month period (The Diabetic Retinopathy Study Research Group: Indications for photocoagulation treatment of diabetic retinopathy: Diabetic Reinopathy Study Report No. 14. Int. Opthalmol. Clin. 27:239 (1987)).
Subjects were evaluated at monthly intervals for ocular changes using procedures established in the Early Treatment Diabetic Retinopathy Study (ETDRS) trial (Techniques for scatter and local photocoagulation treatment of diabetic retinopathy. Early Treatment Diabetic Retinopathy Study Report No. 3. The Early Treatment Diabetic Retinopathy Study Research Group. Int Ophthalmol Clin. 27:254-64 (1987)). Ocular examination included fluorescein angiograms and stereoscopic fundis photographs using seven standard photographic fields. Each field was 30 degrees with the first 2 fields centered on the disc and macula. The other fields imaged the surrounding retina. Photographs were assessed for severity of retinopathy using an extension of the modified Airlie House classification scheme. Severe non-proliferative DR required the presence of at least 3 of the following characteristics: cotton wool patches, venous beading, intraretinal microvascular abnormalities (IRMA) or extensive retinal hemorrhages. Inclusion criteria also required understanding the study protocol and willingness to participate in required study procedures. Exclusion criteria included: current use of tobacco products, regular medication other than prescribed antidiabetic agents and thyroxine, history of psychiatric illness, illicit drug use, sitting diastolic blood pressure values greater than […], serum creatinine clearance below 30 ml/min, and a body mass index that differed more than 20% from normal published ranges for the subject's height and sex.
Sixteen subjects with Type I diabetes participated in and completed the Phase-I protocol, with 8 patients randomly assigned to conventional diabetes management and 8 patients assigned treatment with maximally tolerated doses of octreotide in conjunction with routine diabetes management.
Initial octreotide doses of 500 μg/day were escalated based on IGF-1 levels to a maximum of 3000 μg/day during the 15-month treatment period. The range of maximally tolerated octreotide doses used throughout the 15-month treatment period was 600 to 3000 μg/day. The Phase protocol included a 5-day evaluation period with patients confined to the clinical research unit at study initiation. Octreotide treated patients were monitored for response to the initial 500 μg/day dose of octreotide (administered as a constant subcutaneous infusion). GH secretion was quantified from area under the serum concentration versus time curve (AUC) for blood samples collected every 2 to 4 hours throughout a 24-hour period. […]

[2] = test system: human retinal endothelial cells; settings: rapidly proliferating cells, in vitro; cited from earlier work
patients with early DR = settings: cited from earlier work
[3] = test system: patients with Type I or Type II diabetes and severe non-proliferative DR or non-"high risk" proliferative DR; assay: Phase II human study: octreotide plus thyroid hormone (levothyroxine) versus conventional diabetes management, 15 months; format: in vivo; settings: thyroxine alone 100 to 200 μg/day for hypothyroidism, no octreotide
Excerpt: A total of 39 patients with type I or type II diabetes and diagnosed with either severe non-proliferative DR or non-“high risk” proliferative DR were enrolled between 1991 and 1996 into Phase I or Phase II of the study. Subjects were recruited from patients treated for diabetes mellitus at the University of Florida Adult Endocrinology clinics and referrals from community retinal specialists. All patients provided written informed consent to participate in required study procedures. Volunteers in both phases of the study were randomized to receive conventional diabetes management alone (control group) or octreotide treatment with conventional diabetes care (OCT group). Octreotide was administered via subcutaneous injection 4 times daily or via continuous subcutaneous infusion with doses individually adjusted to the highest tolerated somatostatin analogue levels. […]
Subjects were evaluated at monthly intervals for ocular changes using procedures established in the Early Treatment Diabetic Retinopathy Study (ETDRS) trial (Techniques for scatter and local photocoagulation treatment of diabetic retinopathy. Early Treatment Diabetic Retinopathy Study Report No. 3. The Early Treatment Diabetic Retinopathy Study Research Group. Int Ophthalmol Clin. 27:254-64 (1987)). […] Photographs were assessed for severity of retinopathy using an extension of the modified Airlie House classification scheme. […]

[4] = octreotide treated group, p<0.05 vs conventionally treated group

| SMILES | patients requiring PRP during the 15-month study ([1]; 8 patients per group, control also 4 of 8) | mean time for disease progression to laser surgery (PRP) ([1]; control 6.0 months, not different) [months] | mean HbA1c after at least 3 months of study ([1]; conventional management 8.1%±1.8%, p<0.05) | mean decrease in 24 hour AUC for GH (GH secretion) ([1]; initial 500 μg/day constant subcutaneous infusion, day 5 of treatment, compared to control, p<0.05) [%] | patients with IGF-1 decreased into the hypophysectomized range of 75 ng/ml ([1]; maximally tolerated doses 600 to 3000 μg/day) | effect on progression of DR ([1]; maximally tolerated octreotide in the absence of thyroid hormone replacement) | mean IGF-1 at the end of treatment ([1]; octreotide 600 to 3000 μg/day, 15 months, decreased from 241±58 ng/ml at study enrollment, p<0.05 vs control) [ng/mL] | decrease in insulin requirements [1, 4] [%] | improvement in proteinuria [1, 4] [%] | effect on IGF-I and b-FGF stimulated growth of cells [2] | retinal disease versus conventionally managed patients (patients with early DR; early DR, one year, 400 μg/day) | thyroid adverse finding (patients with early DR; infused for one year with 400 μg/day, no evidence for clinical significance) | control patients receiving thyroxine who required PRP [3] |
| --- | --- | --- | --- | --- | --- | --- | --- | --- | --- | --- | --- | --- | --- |
| C[C@@H](O)[C@@H]1NC(=O)[C@H](CCCCN)NC(=O)[C@@H](Cc2c[nH]c3ccccc23)NC(=O)[C@H](Cc2ccccc2)NC(=O)[C@@H](NC(=O)[C@H](N)Cc2ccccc2)CSSC[C@@H](C(=O)N[C@H](CO)[C@@H](C)O)NC1=O [octreotide] | Four and 4 of 8 | 8.5 | 6.4%±0.9 | 33 | 1 of 8 | not effective in retarding progression of DR | 130 ± 38 | 29 | 82 | direct inhibitory effects | no difference | mild hypothyroidism |  |
| N[C@@H](Cc1cc(I)c(Oc2cc(I)c(O)c(I)c2)c(I)c1)C(=O)O [thyroxine, levothyroxine] |  |  |  |  |  |  |  |  |  |  |  |  | 3 of the 7 |
